Assay results: ChEMBL document CHEMBL1201862, “PubChem BioAssay data set” (2004)
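Dose response: 5 concentrations. Exposure: 48 h. Format: 96-well plates. Endpoint: linear interpolation; highest concentration if not reached. Abbreviation: GI50, concentration required for 50% inhibition of growth.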 Activity calls are given as the source filed them. Cut-off read from the data, not from the text of the source: active = GI50 up to about 1.1 µM and inactive = higher.

How the values were obtained:
Assay in all cases: inhibition of tumour cell growth, NCI panel, 48 h
COLO 205 = test system: COLO 205
HCT-15 = test system: HCT-15
HL-60 = test system: HL-60
IGROV-1 = test system: IGROV-1
KM12 = test system: KM12
LOX IMVI = test system: LOX IMVI
M14 = test system: M14
NCI-H226 = test system: NCI-H226
OVCAR-4 = test system: OVCAR-4
SF-539 = test system: SF-539
SK-MEL-28 = test system: SK-MEL-28
SW-620 = test system: SW-620
TK-10 = test system: TK-10
UACC-257 = test system: UACC-257
DU-145 = test system: DU-145
HT-29 = test system: HT-29
MDA-MB-231 = test system: MDA-MB-231
MDA-N = test system: MDA-N
NCI/ADR-RES = test system: NCI/ADR-RES
HOP-92 = test system: HOP-92

Compound | GI50 (COLO 205) | GI50 (HCT-15) [µM] | GI50 (HL-60) | GI50 (IGROV-1) | GI50 (KM12) | GI50 (LOX IMVI) | GI50 (M14) | GI50 (NCI-H226) | GI50 (OVCAR-4) | GI50 (SF-539) | GI50 (SK-MEL-28) | GI50 (SW-620) | GI50 (TK-10) | GI50 (UACC-257) | GI50 (DU-145) | GI50 (HT-29) | GI50 (MDA-MB-231) | GI50 (MDA-N) | GI50 (NCI/ADR-RES) | GI50 (HOP-92)
O=[N+]([O-])c1ccc(C2=Nc3ccccc3SC(c3ccccc3)C2)cc1 (centres undefined) | 17.5 µM (inactive) | 16.3 | 16.5 µM (inactive) | 16 µM (inactive) | 17.1 µM (inactive) | 13.7 µM (inactive) | 19.4 µM (inactive) | 21.7 µM (inactive) | 14.3 µM (inactive) | 21.4 µM (inactive) | 21.3 µM (inactive) | 14.5 µM (inactive) | 38.1 µM (inactive) | 26.2 µM (inactive) | – | – | – | – | – | –
CN1C2CCC1CC(C)(O)C2 (centres undefined) | > 100 µM (inactive) | > 100 | > 100 µM (inactive) | – | > 100 µM (inactive) | > 100 µM (inactive) | > 100 µM (inactive) | > 100 µM (inactive) | – | – | > 100 µM (inactive) | > 100 µM (inactive) | > 100 µM (inactive) | > 100 µM (inactive) | > 100 µM (inactive) | > 100 µM (inactive) | > 100 µM (inactive) | > 100 µM (inactive) | > 100 µM (inactive) | –
COC(=O)c1ccc(/C=C2\N=C(C)OC2=O)cc1 | > 100 µM (inactive) | > 100 | > 100 µM (inactive) | > 100 µM (inactive) | > 100 µM (inactive) | > 100 µM (inactive) | > 100 µM (inactive) | > 100 µM (inactive) | > 100 µM (inactive) | > 100 µM (inactive) | > 100 µM (inactive) | > 100 µM (inactive) | > 100 µM (inactive) | – | – | > 100 µM (inactive) | – | – | – | > 100 µM (inactive)
CC(C)=C1C2CC3(C)CCC2(C)CCC13.CC1=CCC2C3(C)CCC2(C(C)C)C1C3 (centres undefined) | 26.7 µM (inactive) | 16.9 | 24.2 µM (inactive) | 16.5 µM (inactive) | 19.5 µM (inactive) | 28.8 µM (inactive) | 20.1 µM (inactive) | – | 26.1 µM (inactive) | 27.4 µM (inactive) | 34.2 µM (inactive) | 23.7 µM (inactive) | 25.5 µM (inactive) | 27.2 µM (inactive) | 29.4 µM (inactive) | 16.2 µM (inactive) | 22 µM (inactive) | 25.5 µM (inactive) | 18.4 µM (inactive) | 27.7 µM (inactive)
O=CCCn1[nH]c(=O)ccc1=O | – | > 100 | > 100 µM (inactive) | > 100 µM (inactive) | – | > 100 µM (inactive) | > 100 µM (inactive) | > 100 µM (inactive) | > 100 µM (inactive) | > 100 µM (inactive) | > 100 µM (inactive) | > 100 µM (inactive) | > 100 µM (inactive) | > 100 µM (inactive) | – | > 100 µM (inactive) | – | – | – | > 100 µM (inactive)
CNc1ccccc1-c1nc2ccccc2c(=O)o1 | > 100 µM (inactive) | > 100 | > 100 µM (inactive) | 74.1 µM (inactive) | > 100 µM (inactive) | > 100 µM (inactive) | > 100 µM (inactive) | > 100 µM (inactive) | > 100 µM (inactive) | 35 µM (inactive) | > 100 µM (inactive) | > 100 µM (inactive) | > 100 µM (inactive) | > 100 µM (inactive) | – | – | – | – | – | –
CC(=O)/N=C1/N(/C=C2\C(=O)Oc3ccccc3C2=O)C(=O)/C(=C/c2ccc(OC(C)=O)cc2)N1C | > 100 µM (inactive) | > 100 | > 100 µM (inactive) | > 100 µM (inactive) | > 100 µM (inactive) | > 100 µM (inactive) | > 100 µM (inactive) | > 100 µM (inactive) | > 100 µM (inactive) | > 100 µM (inactive) | > 100 µM (inactive) | > 100 µM (inactive) | – | > 100 µM (inactive) | > 100 µM (inactive) | > 100 µM (inactive) | > 100 µM (inactive) | > 100 µM (inactive) | > 100 µM (inactive) | –
CCN1C(=O)C(=Cc2ccc(-c3ccccc3)cc2)C(=O)N(CC)C1=S | > 100 µM (inactive) | > 100 | 35.5 µM (inactive) | > 100 µM (inactive) | > 100 µM (inactive) | > 100 µM (inactive) | > 100 µM (inactive) | > 100 µM (inactive) | > 100 µM (inactive) | > 100 µM (inactive) | > 100 µM (inactive) | > 100 µM (inactive) | > 100 µM (inactive) | > 100 µM (inactive) | > 100 µM (inactive) | > 100 µM (inactive) | > 100 µM (inactive) | – | 34.7 µM (inactive) | > 100 µM (inactive)
CCOCCOc1ccc(OCCOCC)cc1 | 15.9 µM (inactive) | 16.9 | 3.4 µM (inactive) | 20 µM (inactive) | 31.5 µM (inactive) | 17.9 µM (inactive) | – | 31.9 µM (inactive) | 6.04 µM (inactive) | > 10 µM (inactive) | 20.3 µM (inactive) | 19.2 µM (inactive) | – | 17.5 µM (inactive) | – | 16.9 µM (inactive) | – | – | 16.4 µM (inactive) | –
O=C(Nc1ccccc1Br)c1cccc([N+](=O)[O-])c1O | 3.66 µM (inactive) | 4.6 | 2.9 µM (inactive) | 2.88 µM (inactive) | 4.26 µM (inactive) | 2.38 µM (inactive) | 4.32 µM (inactive) | 3.3 µM (inactive) | 3.01 µM (inactive) | 5.61 µM (inactive) | 4.37 µM (inactive) | 6.81 µM (inactive) | 1.54 µM (inactive) | 2.01 µM (inactive) | – | 4.73 µM (inactive) | – | – | – | 1.63 µM (inactive)
CSCC(CO)NC(=O)/C=C/c1c(C)[nH]c(=O)[nH]c1=O (centres undefined) | 68.5 µM (inactive) | 485 | 197 µM (inactive) | > 875 µM (inactive) | 695 µM (inactive) | 457 µM (inactive) | – | 752 µM (inactive) | 31.9 µM (inactive) | > 875 µM (inactive) | > 875 µM (inactive) | 366 µM (inactive) | – | 820 µM (inactive) | – | > 826 µM (inactive) | – | – | 621 µM (inactive) | 318 µM (inactive)
CN(C)C(=O)C1CCC(=C2C(=O)OC(C)(C)OC2=O)N1C (centres undefined) | > 100 µM (inactive) | > 100 | – | > 100 µM (inactive) | > 100 µM (inactive) | > 100 µM (inactive) | > 100 µM (inactive) | > 100 µM (inactive) | > 100 µM (inactive) | > 100 µM (inactive) | > 100 µM (inactive) | > 100 µM (inactive) | > 100 µM (inactive) | > 100 µM (inactive) | – | > 100 µM (inactive) | – | – | – | > 100 µM (inactive)
CC1OC(O)CC(OC(=O)c2ccccc2)C1OC(=O)c1ccccc1 (centres undefined) | 27 µM (inactive) | 15.3 | 13.6 µM (inactive) | 12.4 µM (inactive) | 39.6 µM (inactive) | 11.1 µM (inactive) | 16.7 µM (inactive) | – | 15.1 µM (inactive) | 17.5 µM (inactive) | 16.1 µM (inactive) | 13.3 µM (inactive) | > 100 µM (inactive) | 15.3 µM (inactive) | – | 21.6 µM (inactive) | – | – | – | 20 µM (inactive)
O=C(O)C(Cc1ccc(O)cn1)NC(=O)C(F)(F)F (centres undefined) | > 100 µM (inactive) | > 100 | > 100 µM (inactive) | > 100 µM (inactive) | > 100 µM (inactive) | > 100 µM (inactive) | – | > 100 µM (inactive) | – | > 100 µM (inactive) | > 100 µM (inactive) | > 100 µM (inactive) | > 100 µM (inactive) | > 100 µM (inactive) | > 100 µM (inactive) | > 100 µM (inactive) | > 100 µM (inactive) | > 100 µM (inactive) | > 100 µM (inactive) | –
Nc1cc(S(=O)(=O)O)cc2cc(S(=O)(=O)O)c(/N=N/c3ccc(-c4ccc(/N=N/c5c(S(=O)(=O)O)cc6cc(S(=O)(=O)O)cc(N)c6c5O)cc4)cc3)c(O)c12 | > 100 µM (inactive) | > 100 | > 100 µM (inactive) | > 100 µM (inactive) | > 100 µM (inactive) | > 100 µM (inactive) | – | > 100 µM (inactive) | > 100 µM (inactive) | > 100 µM (inactive) | > 100 µM (inactive) | > 100 µM (inactive) | – | > 100 µM (inactive) | – | > 100 µM (inactive) | – | – | > 100 µM (inactive) | > 71.9 µM (inactive)
CC1(C)[C@@H]2C[C@H]1C(Cc1ccccc1C[C@H]1c3cc(-c4ccccn4)ncc3[C@H]3C[C@@H]1C3(C)C)c1cc(-c3ccccn3)ncc12 (some centres undefined) | 0.399 µM (active) | 0.41 | 0.232 µM (active) | 0.274 µM (active) | 0.389 µM (active) | 0.361 µM (active) | 0.28 µM (active) | – | 0.716 µM (active) | 0.577 µM (active) | 0.527 µM (active) | 0.6 µM (active) | 0.638 µM (active) | 0.507 µM (active) | 0.375 µM (active) | 0.371 µM (active) | 0.587 µM (active) | 0.578 µM (active) | 1.91 µM (inactive) | –
CCc1ccc(Nc2cc(=O)[nH]c(=S)n2C)cc1 | > 100 µM (inactive) | > 100 | > 100 µM (inactive) | > 100 µM (inactive) | > 100 µM (inactive) | > 100 µM (inactive) | > 100 µM (inactive) | > 100 µM (inactive) | > 100 µM (inactive) | > 100 µM (inactive) | – | > 100 µM (inactive) | > 100 µM (inactive) | > 100 µM (inactive) | – | > 100 µM (inactive) | – | – | – | > 100 µM (inactive)
N[C@@H](CSCSC[C@H](N)C(=O)O)C(=O)O | > 225 µM (inactive) | > 225 | 185 µM (inactive) | > 225 µM (inactive) | 126 µM (inactive) | > 225 µM (inactive) | – | > 225 µM (inactive) | > 225 µM (inactive) | > 225 µM (inactive) | > 225 µM (inactive) | > 225 µM (inactive) | – | > 225 µM (inactive) | – | > 225 µM (inactive) | – | – | > 104 µM (inactive) | > 169 µM (inactive)
